Data on eight compounds can be found in patent US20070202188A1, “Use of alkene carboxlic acid n alkylamides as flavouring agents” (priority 2003, published 2007).

For one data set, the system named is group of 6-8 testers. Briefly: Sensorial evaluation (tasting of sugar solution by a group of testers). It counts as in vivo. To be noted: approx. 5 ml swallowed. The protocol: The substance to be tasted (see below) was dissolved in ethanol and the ethanolic solution was then diluted with 11% strength sugar solution (final concentration: c). For tasting, in each case approx. 5 ml of the sugar solution was swallowed. If the threshold value of the substance was known, a value just above the threshold value was chosen for the tasting. A group of 6-8 testers tasted the solutions.

The next data set deals with oral cavity. As to conditions: in vivo; cited from earlier work.
The next data set relates to mouse. As to conditions: mouse oral; cited from earlier work.
For data set [1] the following is noted: cited from earlier work.
A further data set concerns mouth. To be noted: in vivo; cited from earlier work.
Setting [2] is: c=10 ppm in 11% strength sugar solution.

For the compound “2E-decenoic acid N-(2-methylbutyl)amide [Example 2]”, the sensorial profile result in the data set on group of 6-8 testers (setting [2]) is listed as “slightly piquant, saliva-promoting, tingling, mild heat sensation”.
On to 2E-tetradecenoic acid N-isobutylamide, for which, in the data set on oral cavity, the “sensorial effect described in the literature” value is listed as “no piquant taste was found”.
As to “3E-nonenoic acid N-isobutylamide [Example 3]”, in the data set on group of 6-8 testers (setting [2]), the sensorial profile result is “anaesthetizing, piquant taste builds up, impression of sweet palmond, slightly bitter”.
As to `CCCCC/C=C/C=C/C(=O)NCC(C)C` [2E,4E-decadienoic acid N-isobutylamide], in the data set on group of 6-8 testers (setting [2]), the sensorial profile entry was “saliva-promoting, fatty, fruity, slightly tingling, slightly piquant”. Further, the “sensorial effect described in the literature” value in the data set with oral cavity is recorded as “chiefly shows an anaesthetizing effect”.
Consider `CCCCCC/C=C/CC(=O)NCC(C)C` [Example 4, 3E-decenoic acid N-isobutylamide], for which the sensorial profile entry in the data set with group of 6-8 testers (setting [2]) is listed as “tickling piquant taste, builds up slowly in the pharynx, slightly bitter”.
With `COc1cc(CNC(=O)CCCC/C=C/C(C)C)ccc1O` [capsaicin, N-(4-hydroxy-3-methoxybenzyl)-8-methyl-(6E)-nonenoic acid amid], in the data set with mouse, the LD50 is given as 47 mg. The “damage with frequent use and overdose” value in data set [1] was “chronic gastritis and kidney and liver damage”.
On to `COc1cc(CNC(=O)CCCCCCC(C)C)ccc1O` [dihydrocapsaicin], for which the sensorial profile entry in the data set with group of 6-8 testers (c=100 ppb in 11% strength sugar solution) is listed as “action starts with a slight delay in the pharyngeal cavity, aggressive, burning piquant taste (chilli, slight evolution of heat)”.
Consider `O=C(/C=C/C=C/c1ccc2c(c1)OCO2)N1CCCCC1` [piperine, 1-piperoylpiperidine], for which, in the data set on mouth, the intrinsic taste result is listed as “intensive intrinsic taste reminiscent of pepper” and the “relative piquant taste compared with capsaicin” value is “approx. 1%”.
